In one assay the target is T1, CCK receptor (pancreas) (Rattus norvegicus, UniProt P30551).
T1 construct: The whole pancreas was dissected free of fat tissue and was homogenized; from tissue; host or cells: rat pancreas membrane homogenate
T1 sequence (P30551 1-444): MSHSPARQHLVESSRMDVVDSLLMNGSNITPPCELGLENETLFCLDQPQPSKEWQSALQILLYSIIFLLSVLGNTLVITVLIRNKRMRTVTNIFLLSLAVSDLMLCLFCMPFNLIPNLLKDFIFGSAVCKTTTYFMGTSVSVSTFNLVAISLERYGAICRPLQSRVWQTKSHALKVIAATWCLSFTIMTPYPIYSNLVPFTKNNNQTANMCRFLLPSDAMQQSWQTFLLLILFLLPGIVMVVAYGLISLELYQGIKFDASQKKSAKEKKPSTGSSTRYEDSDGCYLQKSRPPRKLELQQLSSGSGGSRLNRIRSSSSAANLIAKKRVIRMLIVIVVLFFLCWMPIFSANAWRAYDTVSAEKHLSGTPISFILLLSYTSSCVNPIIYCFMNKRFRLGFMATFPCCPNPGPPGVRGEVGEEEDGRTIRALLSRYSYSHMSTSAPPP
The assay is described as follows: biochemical. It counts as binding. As to conditions: rat pancreas membranes; for IC50: 50 pM 125I-CCK-8, 25°C 2 hours. The method, then:
CCK-8 sulphated was radiolabelled with ¹²⁵I-Bolton Hunter reagent (2000 Ci/mmole). Receptor binding was performed according to Chang and Lotti (Proc. Natl. Acad. Sci. 83, 4923-4926, 1986) with minor modifications.
Male Sprague-Dawley rats (150-200g) were sacrificed by decapitation. The whole pancreas was dissected free of fat tissue and was homogenized in 25 volumes of ice-cold 10 mM N-2-hydroxyethyl-piperazine-N′-2-ethane sulphonic acid (HEPES) buffer with 0.1% soya bean trypsin inhibitor (pH 7.4 at 25°C) with a Kinematica Polytron. The homogenates were centrifuged at 47,800 g for 10 min. Pellets were resuspended in 10 volumes of binding assay buffer (20mM (HEPES)), 1mM ethylene glycol-bis-(β-aminoethylether-N,N′-tetraacetic acid) (EGTA), 5mM MgCl₂, 150 mM NaCl, bacitracin 0.25 mg/ml, soya bean trypsin inhibitor 0.1 mg/ml, and bovine serum albumin 2 mg/ml pH 6.5 at 25°C) using a Teflon (trademark) homogenizer, 15 strokes at 500 rpm. The homogenate was further diluted in binding assay buffer to give a final concentration of 0.5 mg original wet weight/1 ml buffer. […] All assays were run in duplicate. The reaction mixtures were incubated at 25°C for 2 hours and the reaction terminated by rapid filtration (Brandell 24 well cell harvester) over Whatman GF/C filters, washing 3 x 4 mls with ice-cold 100 Mm NaCl. The radioactivity on the filters was counted with a LKB gamma counter.
(§1) Drug displacement studies were performed with at least 10 concentrations of compounds of Formula I and the IC₅₀ values were determined by regression analysis IC₅₀ refers to the concentration of the compound required to inhibit 50% of specific binding of ¹²⁵I-CCK-8.

In assay [1] the target is T2, CCK receptor (brain, cortex) (Cavia porcellus, UniProt H0VZC5).
T2 construct: the cortex was removed and homogenized in 25 mL ice-cold 0.32 M sucrose; from tissue; host or cells: guinea pig brain cortex P2 membrane pellet
T2 sequence (H0VZC5 1-426): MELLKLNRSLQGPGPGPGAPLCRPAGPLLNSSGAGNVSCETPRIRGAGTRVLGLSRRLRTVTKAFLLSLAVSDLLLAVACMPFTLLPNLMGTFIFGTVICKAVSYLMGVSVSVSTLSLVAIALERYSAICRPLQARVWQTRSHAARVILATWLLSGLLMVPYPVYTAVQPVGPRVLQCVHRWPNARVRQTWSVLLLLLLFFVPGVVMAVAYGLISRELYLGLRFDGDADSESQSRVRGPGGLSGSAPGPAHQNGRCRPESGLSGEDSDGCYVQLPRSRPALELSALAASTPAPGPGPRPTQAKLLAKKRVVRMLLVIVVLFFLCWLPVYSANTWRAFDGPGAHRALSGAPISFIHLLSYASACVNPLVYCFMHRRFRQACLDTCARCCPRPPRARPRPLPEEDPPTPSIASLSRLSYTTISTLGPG
The assay is described as follows: biochemical. It counts as binding, guinea pig. The following applies: guinea pig cortex membranes, 50 pM 125I-CCK-8, 25°C 2 hours; read-out: IC50 ^125I-CCK Brain. The method, then: CCK-8 sulphated was radiolabelled and the binding was performed according to the description for the pancreas method with minor modifications.
Male Hartley guinea pigs (300-500g) were sacrificed by decapitation and the cortex was removed and homogenized in 25 mL ice-cold 0.32 M sucrose. The homogenates were centrifuged at 1000 g for 10 minutes and the resulting supernatant was recentrifuged at 20,000 g for 20 minutes. The P₂ pellet was resuspended in binding assay buffer (20mM HEPES, 5 mM MgCl₂, 0.25 mg/ml bacitracin, 1 mM EGTA pH 6.5 at 25°C), using a Teflon (trademark) homogenizer (5 strokes at 500 rpm) to give a final concentration of 10 mg original wet weight/1.2 ml buffer. […] All assays were run in duplicate. The reaction mixtures were incubated at 25°C for 2 hours and then the reaction was terminated by rapid filtration (Brandell 24 well cell harvester) on Whatman GF/C filters with 3 x 5 ml washes of cold 100 mM NaCl. The radioactivity on the filters was counted with a LKB gamma counter.
as §1

Results on 18 compounds are retold here after patent EP0514133A1, “Benzodiazepine derivatives, compositions containing them and their use in therapy” (priority 1991, dated 1992).

`CC(C)S(=O)(=O)NC(=O)c1cccc(NC(=O)NC2N=C(C3CCCCC3)c3ccccc3N(C)C2=O)c1` (single isomer, unassigned) [24 (Peak B)]: at CCK receptor (pancreas), the IC50 (usually the concentration that gives 50% inhibition) came to 5 nM.

`CC(C)CN1C(=O)C(NC(=O)Nc2cccc(-c3nn[nH]n3)c2)N=C(C2CCCCC2)c2ccccc21` (racemic) [Example 2, N-[3(R,S)-5-Cyclohexyl-2,3-dihydro-1-(2-methylpropyl)-2-oxo-1H-1,4-benzodiazepin-3-yl] N′-[3-tetrazol-5-ylphenyl] urea]: the inhibition – broadly, the share of the control response that was lost under treatment – at 3 µM on CCK receptor (pancreas) (at 3μM, read-out: inhibition of ^125I-CCK binding, Pancreas) was roughly 27%. Further, the IC50 in assay [1] was 0.42 nM.

Take `CN1C(=O)C(NC(=O)Nc2cccc(-c3cc(=O)c(O)co3)c2)N=C(C2CCCCC2)c2ccccc21` (racemic) [Example 43, N-[3(R,S)-5-Cyclohexyl-2,3-dihydro-1-methyl-2-oxo-1H-1,4-benzodiazepin-3-yl] N′-[3-(5-hydroxy-4-pyron-2-yl)phenyl] urea]: the half-inhibitory concentration (IC50) against CCK receptor (pancreas) came to 17.8 nM; in assay [1], 2.1 nM.

As for `CN1C(=O)C(NC(=O)Nc2cccc(-c3nnn(C)n3)c2)N=C(C2CCCCC2)c2ccccc21` (racemic) [Example 28, N-[3(R,S)-5-Cyclohexyl-2,3-dihydro-1-methyl-2-oxo-1H-1,4-benzodiazepin-3-yl] N′-[3-(2-methyltetrazol-5-yl)phenyl]urea], the IC50 at CCK receptor (pancreas) worked out at 8.3 nM; in assay [1] it was 4 nM.

Turning to `CN1C(=O)C(NC(=O)Nc2cccc(-c3nn[nH]n3)c2)N=C(C2CCCC2)c2ccccc21` (racemic) [Example 8, N-[3(R,S)-5-Cyclopentyl-2,3-dihydro-1-methyl-2-oxo-1H-1,4-benzodiazepin-3-yl] N′-[3-tetrazol-5-ylphenyl] urea], the IC50 stood at 56 nM against CCK receptor (pancreas) and 1.6 nM in assay [1].

`CN1C(=O)C(NC(=O)Nc2cccc(C(=O)NS(=O)(=O)c3ccccc3)c2)N=C(C2CCCCC2)c2ccccc21` (racemic) [Example 14, N-[3(R,S)-5-Cyclohexyl-2,3-dihydro-1-methyl-2-oxo-1H-1,4-benzodiazepin-3-yl] N′-[3-(phenylsulphonylaminocarbonyl)phenyl] urea]: the IC50 against CCK receptor (pancreas) came out at 11.1 nM; in assay [1], 0.58 nM.

At CCK receptor (pancreas), `Cc1ccccc1S(=O)(=O)NC(=O)c1cccc(NC(=O)N[C@@H]2N=C(C3CCCCC3)c3ccccc3N(C)C2=O)c1` [Example 33, N-[3(R)-5-Cyclohexyl-2,3-dihydro-1-methyl-2-oxo-1H-1,4-benzodiazepin-3-yl] N′-[3-(2-methylphenylsulphonylaminocarbonyl)phenyl] urea] had an IC50 of 1600 nM.

On to `CCS(=O)(=O)NC(=O)c1cccc(NC(=O)NC2N=C(C3CCCCC3)c3ccccc3N(C)C2=O)c1` (racemic) [Example 23, N-[3(R,S)-5-Cyclohexyl-2,3-dihydro-1-methyl-2-oxo-1H-1,4-benzodiazepin-3-yl] N′-[3-(ethylsulphonylaminocarbonyl)phenyl]urea], for which the IC50 against CCK receptor (pancreas) was determined as 5 nM; in assay [1] it was 0.96 nM.

Regarding `CN1C(=O)C(NC(=O)Nc2cccc(S(=O)(=O)NC(=O)C(C)(C)C)c2)N=C(C2CCCCC2)c2ccccc21` (racemic) [Example 32, N-(3(R,S)-5-Cyclohexyl-2,3-dihydro-1-methyl-2-oxo-1H-1,4-benzodiazepin-3-yl] N′-(3-(1,1-dimethylethylcarbonylaminosulphonyl)phenyl] urea], the IC50 came out at 610 nM against CCK receptor (pancreas) and 1.3 nM in assay [1].

As to `CC(C)C(=O)NS(=O)(=O)c1cccc(NC(=O)NC2N=C(C3CCCCC3)c3ccccc3N(C)C2=O)c1` (racemic) [Example 11, N-[3(R,S)-5-Cyclohexyl-2,3-dihydro-1-methyl-2-oxo-1H-1,4-benzodiazepin-3-yl] N′-(3-(isopropylcarbonylaminosulphonyl)phenyl] urea], the values for the IC50 (at CCK receptor (pancreas); in assay [1]) were 118 nM and 0.32 nM, respectively.

As to `CC(C)S(=O)(=O)NC(=O)c1cccc(NC(=O)NC2N=C(C3CCCC3)c3ccccc3N(C)C2=O)c1` (racemic) [Example 38, N-(3(R,S)-5-Cyclopentyl-2,3-dihydro-1-methyl-2-oxo-1H-1,4-benzodiazepin-3-yl] N′-[3-(isopropylsulphonylaminocarbonyl)phenyl] urea], the IC50 on CCK receptor (pancreas) is 300 nM; in assay [1] it was 6.8 nM.

As to `CCN1C(=O)C(NC(=O)Nc2cccc(C(=O)NS(=O)(=O)C(C)C)c2)N=C(C2CCCC2)c2ccccc21` (racemic) [Example 30, N-[3(R,S)-5-Cyclopentyl-2,3-dihydro-1-ethyl-2-oxo-1H-1,4-benzodiazepin-3-yl] N′-[3-(isopropylsulphonylaminocarbonyl)phenyl] urea], the IC50 is 170 nM against CCK receptor (pancreas) and 3.2 nM in assay [1].

For `CCCN1C(=O)C(NC(=O)Nc2cccc(C(=O)NS(C)(=O)=O)c2)N=C(C2CCCCC2)c2ccccc21` (racemic) [Example 25, N-[3(R,S)-5-Cyclohexyl-2,3-dihydro-1-propyl-2-oxo-1H-1,4-benzodiazepin-3-yl] N′-(3-(methylsulphonylaminocarbonyl)phenyl]urea], the values for the 50% inhibitory concentration (IC50) (against CCK receptor (pancreas); in assay [1]) were 220 nM and 1.9 nM, respectively.

In the case of `CCN1C(=O)C(NC(=O)Nc2cccc(C(=O)NS(C)(=O)=O)c2)N=C(C2CCCC2)c2ccccc21` (racemic) [Example 29, N-(3(R,S)-5-Cyclopentyl-2,3-dihydro-1-ethyl-2-oxo-1H-1,4-benzodiazepin-3-yl] N′-(3-(methylsulphonylaminocarbonyl)phenyl] urea], the IC50 at CCK receptor (pancreas) was found to be 22 nM; in assay [1], 6.3 nM.

Consider `CN1C(=O)C(NC(=O)Nc2cccc(S(=O)(=O)NC(=O)c3ccccc3)c2)N=C(C2CCCCC2)c2ccccc21` (racemic) [Example 13, N-(3(R,S)-5-Cyclohexyl-2,3-dihydro-1-methyl-2-oxo-1H-1,4-benzodiazepin-3-yl] N′-[3-(phenylcarbonylaminosulphonyl)phenyl] urea], for which it took 738 nM to reach half-maximal inhibition against CCK receptor (pancreas) (IC50).

At CCK receptor (pancreas), `CN1C(=O)C(NC(=O)Nc2cccc(C(=O)NS(=O)(=O)c3ccccc3)c2)N=C(C2CCCC2)c2ccccc21` (racemic) [Example 40, N-[3(R,S)-5-Cyclopentyl-2,3-dihydro-1-methyl-2-oxo-1H-1,4-benzodiazepin-3-yl] N′-[3-(phenylsulphonylaminocarbonyl)phenyl] urea] displayed an IC50 of 310 nM.

The compound `CN1C(=O)C(NC(=O)Nc2cccc(C(=O)NS(C)(=O)=O)c2)N=C(C2CCCCC2)c2ccccc21` (racemic) [Example 16, N-(3(R,S)-5-Cyclohexyl-2,3-dihydro-1-methyl-2-oxo-1H-1,4-benzodiazepin-3-yl] N′-[3-(methylsulphonylaminocarbonyl)phenyl] urea] had an IC50 against CCK receptor (pancreas) of 2 nM.

In the case of `Cc1cccc(NC(=O)NC2N=C(C3CCCCC3)c3ccccc3N(C)C2=O)c1` (single isomer, unassigned) [7 (Peak B)], in assay [1], the IC50 is 100 nM.
